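Cells were grown in 96-well plates and exposed to each compound for 48 hours at five concentrations; endpoints were interpolated linearly between bracketing concentrations, or set to the highest concentration if not reached. TGI denotes the concentration required for complete inhibition of growth.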 *1 amine or outer side, *2 acyl side, *3 side chain or, on linkers, in order; H or OH if unused. Where a SMILES comes first, the peptide text is derived from it. Bridges are numbered along the chain shown (N, C = ends). [ ]: non-standard residue; d: D form. The star is where a group is joined. X38 = CC[C@H](C)[C@@H](N[*:1])[C@@H](O)CC(=O)[*:2]; NMeY = CN[C@@H](Cc1ccc(O)cc1)C(=O)O; dNMeL = CN[C@H](CC(C)C)C(=O)O; Hiv = CC(C)[C@H](O)C(=O)O; Pyruvoyl = CC(=O)C(=O)*
Experiments:
Test in all cases: growth of human tumour cells (NCI), 48 h
[1] = tested on: OVCAR-8 ovarian
[2] = tested on: HOP-62 NSCLC
[3] = tested on: HCC-2998 colon
[4] = tested on: SNB-75 CNS
[5] = tested on: IGROV1 ovarian
[6] = tested on: HCT-15 colon
[7] = tested on: TK-10 renal
[8] = tested on: SK-MEL-5 melanoma
[9] = tested on: UACC-257 melanoma
[10] = tested on: CCRF-CEM leukemia

Row | SMILES | TGI [1] [µM] | TGI [2] [µM] | TGI [3] [µM] | TGI [4] [µM] | TGI [5] [µM] | TGI [6] [µM] | TGI [7] [µM] | TGI [8] [µM] | TGI [9] [µM] | TGI [10] [µM]
1 | CC[C@H](C)[C@H]1NC(=O)[C@@H](NC(=O)[C@@H](CC(C)C)N(C)C(=O)[C@@H]2CCCN2C(=O)C(C)=O)[C@@H](C)OC(=O)[C@H](Cc2ccc(OC)cc2)N(C)C(=O)[C@@H]2CCCN2C(=O)[C@H](CC(C)C)NC(=O)[C@H](C(C)C)OC(=O)C[C@@H]1O (Pyruvoyl-P[dNMeL]T[X38][Hiv]LP[NMeY](Me); ester 3-C) | 0.342 | 0.0728 | 0.00658 | 0.0101 | 1.19 | 3.29 | 0.0643 | 0.0102 | 0.0655 | –
2 | COc1cc(/C=C\c2ccccn2)cc(OC)c1OC | > 100 | > 100 | – | > 100 | > 100 | > 100 | > 100 | > 100 | > 100 | > 100
3 | COc1cc2c(cc1OC)-c1[nH]c3ccc(C#N)cc3c1CC(=O)N2 | > 100 | > 100 | – | > 100 | > 100 | > 100 | > 100 | 28 | > 100 | > 100
4 | C[C@H]1[C@H](C)N(Cc2ccccc2)P(=O)(C(O)/C=C/c2ccccc2)N1Cc1ccccc1 (stereo partly specified) | > 25 | > 25 | 15.5 | 17.9 | > 25 | > 25 | 24.1 | 8.7 | 14.6 | –
5 | CSc1nc2ccccc2c(=O)n1/N=C1\C(=O)N(CN2CCCCC2)c2ccc(Cl)cc21 | > 100 | > 100 | – | 58.4 | 75.1 | > 100 | > 100 | > 100 | 54.2 | > 100
6 | N#CC1(C#N)C2CCCCC23OC(=N)C1(C#N)C(c1ccco1)O3 (stereo unspecified) | 73.6 | – | 31 | > 100 | 40.3 | 22.5 | 36.1 | 31.3 | 34.9 | > 100
7 | c1ccc(Nc2nnc(CSc3nc(-c4ccccc4)c(-c4ccccc4)[nH]3)s2)cc1 | 53.8 | 41 | – | 85.6 | 42.2 | 49.9 | > 100 | 28.5 | 50 | 49.1
8 | CCOC(=O)CSc1ccnc(=O)[nH]1 | > 100 | – | – | > 100 | > 100 | > 100 | > 100 | > 100 | > 100 | > 100

— PubChem BioAssay (NCI)
